Read-outs that look alike come from different tables or passages of the source.
Key:
[1] = biological target: T1, Human factor Xa (Homo sapiens, UniProt P00742); experiment: Xa Assay
[2] = biological target: T2, TF-VIIa (Homo sapiens, UniProt P08709); experiment: TF-VIIa Assay; assay type: biochemical
T2 construct: 2nM recombinant human factor VIIa; purchased American Diagnostica, Greenwich CT; host or cells: soluble TF made in house in E. coli

[3] = biological target: T1, Human factor Xa
[4] = read-out: IC50 or % Inhibition Factor Xa (30 µM), cells given as a plain number (IC50)
[5] = cells given as a plain number (IC50)

T1 sequence (P00742 235-488 limits assumed): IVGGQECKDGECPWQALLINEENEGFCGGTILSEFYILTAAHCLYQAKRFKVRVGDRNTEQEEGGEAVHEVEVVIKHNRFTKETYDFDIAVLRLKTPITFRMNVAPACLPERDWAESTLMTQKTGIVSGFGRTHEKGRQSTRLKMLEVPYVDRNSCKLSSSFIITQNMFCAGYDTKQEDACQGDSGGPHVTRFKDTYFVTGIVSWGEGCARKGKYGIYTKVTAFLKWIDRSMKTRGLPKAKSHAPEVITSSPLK
T1 sequence (P00742 41-179 limits assumed): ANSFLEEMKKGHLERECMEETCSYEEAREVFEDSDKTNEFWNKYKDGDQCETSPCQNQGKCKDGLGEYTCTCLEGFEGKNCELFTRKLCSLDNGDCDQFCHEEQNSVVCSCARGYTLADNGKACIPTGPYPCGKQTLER
T2 sequence (P08709 213-466 limits assumed): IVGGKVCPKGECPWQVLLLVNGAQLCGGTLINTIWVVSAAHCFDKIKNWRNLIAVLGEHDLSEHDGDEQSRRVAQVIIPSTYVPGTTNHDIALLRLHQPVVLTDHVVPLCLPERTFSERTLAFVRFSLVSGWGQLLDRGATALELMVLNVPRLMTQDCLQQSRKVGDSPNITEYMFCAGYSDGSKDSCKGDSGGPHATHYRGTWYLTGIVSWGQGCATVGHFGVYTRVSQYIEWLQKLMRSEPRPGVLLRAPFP
T2 sequence (P08709 61-212 limits assumed): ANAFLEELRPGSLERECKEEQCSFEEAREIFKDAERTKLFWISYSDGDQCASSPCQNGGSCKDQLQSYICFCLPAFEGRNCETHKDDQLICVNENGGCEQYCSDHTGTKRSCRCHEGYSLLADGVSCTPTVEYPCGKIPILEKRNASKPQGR
T2 sequence (P13726 33-251 partner limits assumed): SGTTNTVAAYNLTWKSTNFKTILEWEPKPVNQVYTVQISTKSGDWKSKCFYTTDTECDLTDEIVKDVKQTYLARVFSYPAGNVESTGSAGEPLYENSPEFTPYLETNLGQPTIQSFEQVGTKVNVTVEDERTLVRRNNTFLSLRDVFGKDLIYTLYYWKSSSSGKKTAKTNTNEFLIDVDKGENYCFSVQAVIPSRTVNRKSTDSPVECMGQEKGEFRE

% Inhibition TF-VIIa (100 µM) [2] [%]	% Inhibition Factor Xa (100 µM) [3] [%]	Compound	other results
0	0	O=C(Cn1c(-c2ccc3c(c2)OCO3)c(Cl)nc(NCc2ccccc2)c1=O)NCCc1ccncc1 [Example E-0041]	
0	0	O=C(Cn1c(Cc2ccccc2)c(Cl)nc(NCCc2cccc(Cl)c2)c1=O)NCCc1ccncc1 [Example E-0059]	
0	0	O=C(Cn1c(Cc2ccccc2)c(Cl)nc(NCCc2ccc(Cl)cc2)c1=O)NCCc1ccncc1 [Example E-0060]	
0	0	O=C(Cn1c(CCc2ccccc2)c(Cl)nc(NCCc2cccc(Cl)c2)c1=O)NCCc1ccncc1 [Example E-0067]	
0	3	COc1ccc(-c2c(Cl)nc(NCc3ccccc3)c(=O)n2CC(=O)NCCc2ccncc2)cc1 [Example E-0097]	
0	2	COc1ccc(-c2c(Cl)nc(NCc3ccccc3)c(=O)n2CC(=O)NCCc2cccnc2)cc1 [Example E-0098]	
3	5	COc1ccc(-c2c(Cl)nc(NCCc3cccc(Cl)c3)c(=O)n2CC(=O)NCCc2cccnc2)cc1 [Example E-0104]	
0	3	O=C(Cn1c(-c2ccc(-c3ccccc3)cc2)c(Cl)nc(NCc2ccccc2)c1=O)NCCc1cccnc1 [Example E-0110]	

More lines, now with the values behind:

Compound	% Inhibition TF-VIIa (100 µM) [2] [%]	% Inhibition Factor Xa (100 µM) [3] [%]	other results
N=C(N)c1ccc(CNC(=O)Cn2c(-c3ccccc3)c(Cl)nc(NCCc3ccncc3)c2=O)cc1 [1471-13]			IC50 or % Inhibition Factor Xa (30 µM) ([1]; % inhibition at 30 µM): 0%; IC50 ([2]; cells given as a plain number (IC50); read-out: IC50 or % Inhibition TF-VIIa (30 µM)): 1.47 µM
N=C(N)c1ccc(CNC(=O)Cn2c(-c3cccc(Cl)c3)c(Cl)nc(NCc3ccccc3)c2=O)cc1 [1471-25]			IC50 or % Inhibition Factor Xa (30 µM) ([1]; % inhibition at 30 µM): 31%
N=C(N)c1ccc(CNC(=O)Cn2c(-c3ccccc3)c(Cl)nc(NCc3ccc(OC(F)(F)F)cc3)c2=O)cc1 [1507-04]			IC50 [1, 4]: > 30 µM; IC50 ([2]; read-out: IC50 or % Inhibition TF-VIIa (30 µM); cells given as a plain number (IC50)): 29.5 µM
N=C(N)c1ccc(CNC(=O)Cn2c(-c3ccccc3)c(Cl)nc(NCCc3cccs3)c2=O)cc1 [1507-18]			IC50 [1, 4]: > 30 µM
N=C(N)c1ccc(CNC(=O)Cn2c(-c3ccccc3)c(Cl)nc(N3CCC3)c2=O)cc1 [1522-28]			IC50 [1, 4]: > 30 µM
Nc1ccc(CNC(=O)Cn2c(Cc3ccccc3)c(Cl)nc(NCCc3ccccc3)c2=O)cn1 [Example 9]			IC50 or % Inhibition Factor Xa (30 µM) [1, 5]: >0 µM
Nc1ccc(CNC(=O)Cn2c(CCc3ccccc3)c(Cl)nc(NCCc3ccccc3)c2=O)cn1 [Example 10, 3-(2-Phenylethylamino)-5-chloro-6-phenethyl-1-(2-amino-5-methylcarboxamidomethylpyridinyl)pyrazinone]			IC50 or % Inhibition Factor Xa (30 µM) [1, 5]: >0 µM
N=C(N)c1ccc(CNC(=O)Cn2c(-c3ccccc3)c(Cl)nc(CN)c2=O)cc1 [Example 18]			IC50 or % Inhibition Factor Xa (30 µM) ([1]; % inhibition at 30 µM): 0%
Nc1cccc(-c2c(Cl)nc(NC3CCC3)c(=O)n2CC(=O)NCCCc2ccnc(N)n2)c1 [Example 26]			IC50 or % Inhibition Factor Xa (30 µM) ([1]; % inhibition at 30 µM): 5%
N=C(N)c1ccc(CNC(=O)Cn2c(-c3ccccc3)c(Cl)nc(NCCN)c2=O)cc1 [Example 44]			IC50 or % Inhibition Factor Xa (30 µM) ([1]; % inhibition at 30 µM): 4%
N=C(N)c1ccc(CNC(=O)Cn2c(-c3ccccc3)c(Cl)nc(NCCCN)c2=O)cc1 [Example 45]			IC50 or % Inhibition Factor Xa (30 µM) ([1]; % inhibition at 30 µM): 9%
N=C(N)c1ccc(CNC(=O)Cn2c(-c3ccccc3)c(Cl)nc(NCCCCN)c2=O)cc1 [Example 46]			IC50 or % Inhibition Factor Xa (30 µM) ([1]; % inhibition at 30 µM): 10%
CC(C)Nc1nc(Cl)c(-c2cccc([N+](=O)[O-])c2)n(CC(=O)NCc2ccc(C#N)cc2)c1=O [Example 59]			IC50 or % Inhibition Factor Xa (30 µM) ([1]; % inhibition at 30 µM): 2%
CC(=O)Nc1cccc(-c2c(Cl)nc(NCCc3ccccc3)c(=O)n2CC(=O)NCc2ccc(C(=N)N)cc2)c1 [Example 100]			IC50 [1]: > 30 µM
CS(=O)(=O)Nc1cccc(-c2c(Cl)nc(NCCc3ccccc3)c(=O)n2CC(=O)NCc2ccc(C(=N)N)cc2)c1 [Example 101]			IC50 [1]: > 30 µM
N=C(N)c1ccc(CNC(=O)Cn2c(-c3ccccc3)cnc(NS(=O)(=O)c3ccccc3)c2=O)cc1 [Example 105]			IC50 or % Inhibition Factor Xa (30 µM) ([1]; % inhibition at 30 µM): 5%
COc1ccc(-c2c(Cl)nc(NCCc3cccnc3)c(=O)n2CC(=O)NCCc2ccncc2)cc1 [Example E-0037]	0	0	
COc1ccc(-c2c(Cl)nc(NCCc3ccncc3)c(=O)n2CC(=O)NCCc2ccncc2)cc1 [Example E-0038]	0	0	
COc1ccc(-c2c(Cl)nc(NCCN3CCOCC3)c(=O)n2CC(=O)NCCc2ccncc2)cc1 [Example E-0039]	0	1	
COc1ccc(-c2c(Cl)nc(NCc3ccncc3)c(=O)n2CC(=O)NCCc2ccncc2)cc1 [Example E-0040]	0	0	
O=C(Cn1c(-c2ccc3c(c2)OCO3)c(Cl)nc(NCCc2ccccc2)c1=O)NCCc1ccncc1 [Example E-0042]	0	0	
O=C(Cn1c(-c2ccc3c(c2)OCO3)c(Cl)nc(NCCc2cccc(Cl)c2)c1=O)NCCc1ccncc1 [Example E-0043]	0	0	
O=C(Cn1c(-c2ccc3c(c2)OCO3)c(Cl)nc(NCCc2ccc(Cl)cc2)c1=O)NCCc1ccncc1 [Example E-0044]	0	0	

Compound	% Inhibition TF-VIIa (100 µM) [2] [%]	% Inhibition Factor Xa (100 µM) [3] [%]	other results
O=C(Cn1c(-c2ccc3c(c2)OCO3)c(Cl)nc(NCCc2cccnc2)c1=O)NCCc1ccncc1 [Example E-0045]	0	0	
O=C(Cn1c(-c2ccc3c(c2)OCO3)c(Cl)nc(NCCc2ccncc2)c1=O)NCCc1ccncc1 [Example E-0046]	0	0	
O=C(Cn1c(-c2ccc3c(c2)OCO3)c(Cl)nc(NCCN2CCOCC2)c1=O)NCCc1ccncc1 [Example E-0047]	0	0	
O=C(Cn1c(-c2ccc3c(c2)OCO3)c(Cl)nc(NCc2ccncc2)c1=O)NCCc1ccncc1 [Example E-0048]	0	0	
O=C(Cn1c(-c2ccc(-c3ccccc3)cc2)c(Cl)nc(NCCc2cccnc2)c1=O)NCCc1ccncc1 [Example E-0053]	0	0	
O=C(Cn1c(-c2ccc(-c3ccccc3)cc2)c(Cl)nc(NCCN2CCOCC2)c1=O)NCCc1ccncc1 [Example E-0055]	0	0	
O=C(Cn1c(-c2ccc(-c3ccccc3)cc2)c(Cl)nc(NCc2ccncc2)c1=O)NCCc1ccncc1 [Example E-0056]	0	0	
O=C(Cn1c(Cc2ccccc2)c(Cl)nc(NCc2ccccc2)c1=O)NCCc1ccncc1 [Example E-0057]	0	6	
O=C(Cn1c(Cc2ccccc2)c(Cl)nc(NCCc2ccccc2)c1=O)NCCc1ccncc1 [Example E-0058]	0	0	
O=C(Cn1c(Cc2ccccc2)c(Cl)nc(NCCc2cccnc2)c1=O)NCCc1ccncc1 [Example E-0061]	0	0	
O=C(Cn1c(Cc2ccccc2)c(Cl)nc(NCCc2ccncc2)c1=O)NCCc1ccncc1 [Example E-0062]	0	0	
O=C(Cn1c(Cc2ccccc2)c(Cl)nc(NCCN2CCOCC2)c1=O)NCCc1ccncc1 [Example E-0063]	0	0	
O=C(Cn1c(Cc2ccccc2)c(Cl)nc(NCc2ccncc2)c1=O)NCCc1ccncc1 [Example E-0064]	0	0	
O=C(Cn1c(CCc2ccccc2)c(Cl)nc(NCc2ccccc2)c1=O)NCCc1ccncc1 [Example E-0065]	0	0	
O=C(Cn1c(CCc2ccccc2)c(Cl)nc(NCCc2ccccc2)c1=O)NCCc1ccncc1 [Example E-0066]	0	0	
O=C(Cn1c(CCc2ccccc2)c(Cl)nc(NCCc2ccc(Cl)cc2)c1=O)NCCc1ccncc1 [Example E-0068]	0	0	
O=C(Cn1c(CCc2ccccc2)c(Cl)nc(NCCc2cccnc2)c1=O)NCCc1ccncc1 [Example E-0069]	0	0	
O=C(Cn1c(CCc2ccccc2)c(Cl)nc(NCCc2ccncc2)c1=O)NCCc1ccncc1 [Example E-0070]	0	0	
O=C(Cn1c(CCc2ccccc2)c(Cl)nc(NCCN2CCOCC2)c1=O)NCCc1ccncc1 [Example E-0071]	0	0	
O=C(Cn1c(CCc2ccccc2)c(Cl)nc(NCc2ccncc2)c1=O)NCCc1ccncc1 [Example E-0072]	0	0	
COc1ccc(-c2c(Cl)nc(NCCc3ccc(Cl)cc3)c(=O)n2CC(=O)NCCc2cccnc2)cc1 [Example E-0107]	4	6	
CSc1ccc(N)cc1-c1c(Cl)nc(NC(C)C)c(=O)n1CC(=O)NCc1ccc(C(=N)N)cc1 [compound 76]			IC50 or % Inhibition Factor Xa (30 µM) ([1]; % inhibition at 30 µM): 0%
CNc1cccc(-c2c(Cl)nc(NCCc3ccccc3)c(=O)n2CC(=O)NCc2ccc(C(=N)N)cc2)c1 [compound 95]			IC50 [1, 4]: > 30 µM

— patent EP1202975B1, “SUBSTITUTED POLYCYCLIC ARYL AND HETEROARYL PYRAZINONES USEFUL FOR SELECTIVE INHIBITION OF THE COAGULATION CASCADE” (Pharmacia Corporation, priority 1999, dated 2000)
